Tested on: MC3T3-E1 osteoblast cells
Test: ECM screen: adhesion of MC3T3-E1 cells to immobilized adhesion ligands (fluorescent nuclei count)
Format: cell-based
Conditions: "best factors" approach
Text: A statistical design was developed with special consideration of the surface chemistry requirements. In particular, in this experiment the scenario shown in FIG. 9 was used, wherein the overall adhesion ligand density was kept constant from well to well and only the adhesion ligand composition was allowed to change. In other words, the concentration of a single adhesion ligand could be different from well to well, but each well has the same amount of adhesion ligand immobilized overall. This scenario is further described above. An example of such design is shown in the spreadsheet in FIG. 10. The spreadsheet serves as a computer representation of the design which is stored in a database. The top row in […] lists the 10 factors […] used in this particular screen, and their corresponding identities. In the spreadsheet shown, Factor A represents fibronectin, Factor B represents Collagen I, etc. The first column is a list of the experimental points that translate into a well in the 96-well plate, e.g., 52 wells in this case. The numbers in the spreadsheet are the factor levels. In this example, these levels are the actual volumes (in μL) of factor that are added to a particular well. In this particular design, factors get added to the wells at three volumes, e.g., 5 μL, 25 μL, or 50 μL. The total well volume in this case is 50 μL. Thus, for wells where one factor is added at 50 μL, the final well composition will comprise a single adhesion ligand covalently immobilized on the well surface. Accordingly, if 25 μL of a factor is added to a well, a second factor is added at 25 μL also, and the final well composition will comprise a mixture of two different cell adhesion ligands covalently immobilized on the well surface. When 5 μL of a factor are added, nine other factors are added at 5 μL each, as well, thus resulting in wells that comprise a mixture of all 10 cell adhesion ligands on the well surface. These experimental points containing all 10 adhesion ligands are called “mid points” and are an integral part of the statistical design in this example.
With reference now to FIG. 11, a 96-well plate layout is shown, which was translated from the particular statistical design shown in FIG. 10. In particular, the 96-well plate includes the well compositions indicated in FIG. 10, e.g., cell adhesion ligand combinations immobilized at the bottom of each well. In particular, the experimental runs in FIG. 10 correspond to rows/columns in FIG. 11, as follows: runs 1-10 in the design in FIG. 10 represent row B, columns 2-11, respectively on the array in FIG. 11; runs 11-20 represent row C, columns 2-11; runs 21-30 represent row D, columns 2-11; runs 31-40 represent row E, columns 2-11; runs 41-50 represent row F, columns 2-11; and runs 51 and 52 represent row G, columns 2 and 3, respectively. As shown by the statistical design in FIG. 10 and the corresponding 96-well plate layout in FIG. 11 it is an embodiment of the present invention that, in addition to mixtures of agents, single agents can be placed in the receptacles.
Cells were removed from cell culture flasks using trypsin-EDTA according to methods well known in the art. Cells were enumerated, spun down and resuspended in media containing no serum or, alternatively, in media containing 10% fetal calf serum. Cells were plated into the wells of a 96-well microarray according to the layout shown in FIG. 11 and described in Example 3 above. The seeding density was about 10,000 cells per well. Cells were incubated on the plates overnight at 37° C. The following day, media and any cells not adhering to the immobilized agents on the well surfaces were removed. Any adhered cells were fixed by exposure to forrnalin for at least 15 minutes. Propidium iodite was used to fluorescently label the nuclei of said fixed adhered cells. […]

[1] = no serum, FIG. 14, deviation from mid-point reference blend

Row | Substance | effect on cell count (mixture-model analysis) (10% serum, FIG. 15) | effect on cell count (mixture-model analysis) [1]
1 | laminin | positive effect on cell count | increase the cell count
2 | poly-L-lysine [reference compound] | diminishes | marginal effect
3 | Collagen IV | positive effect on cell count | increase the cell count

From patent US20050060100A1, “Computer software and algorithms for systems biologically linked to cellular phenotype” (Becton Dickinson and Company, priority 2003, published 2005)
